Results as given in the NIST ThermoML archive (doi:10.1016/j.jct.2005.01.017).
“And” between values parts separate entries of the source, which are not always exact repeats. Identical values can stand only once. Numbers after ± are expanded uncertainties.

What was measured:
[1] = 101 kPa, Liquid
[2] = xn = mol fraction of the nth substance listed; conditions: 101 kPa, Liquid, x1 = 1

Row | SMILES | mass density ([1]; 293.15 K) [kg/m3] | mass density ([1]; 303.15 K) | mass density ([1]; 313.15 K) [kg/m3] | mass density ([1]; 323.15 K) [kg/m3] | mass density ([1]; 333.15 K) [kg/m3] | mass density ([1]; 343.15 K) [kg/m3] | mass density ([2]; 293.15 K) [kg/m3] | mass density ([2]; 303.15 K) [kg/m3] | mass density ([2]; 313.15 K) [kg/m3] | mass density ([2]; 323.15 K) [kg/m3] | mass density ([2]; 333.15 K) [kg/m3] | mass density ([2]; 343.15 K) [kg/m3] | mass density ([1]; 353.15 K) [kg/m3] | mass density ([2]; 353.15 K) [kg/m3]
1 | Cc1ccccc1C [1,2-dimethylbenzene] | 878.6 ± 40 | 872.25 ± 40 kg/m3 | 859.67 ± 40 | 840.84 ± 40 | 815.74 ± 40 | 784.38 ± 40 | – | – | – | – | – | – | – | –
2 | Cc1ccccc1C [1,2-dimethylbenzene] + CC1COC(=O)O1 | – | – | – | – | – | – | 878.6 ± 40 | 872.25 ± 40 | 859.67 ± 40 | 840.84 ± 40 | 815.74 ± 40 | 784.38 ± 40 | – | –
3 | Cc1cccc(C)c1 [1,3-dimethylbenzene] | 864.2 ± 1.9 | 855.76 ± 2 kg/m3 | 847.11 ± 2.1 | 838.27 ± 2.1 | 829.22 ± 2.2 | 819.97 ± 2.3 | – | – | – | – | – | – | 810.51 ± 2.3 | –
4 | Cc1cccc(C)c1 [1,3-dimethylbenzene] + CC1COC(=O)O1 | – | – | – | – | – | – | 864.2 ± 40 | 855.76 ± 40 | 847.11 ± 40 | 838.27 ± 40 | 829.22 ± 40 | 819.97 ± 40 | – | 810.51 ± 40
5 | Cc1ccc(C)cc1 [1,4-dimethylbenzene] | 861 ± 1.8 | 852.28 ± 1.9 kg/m3 | 843.58 ± 1.9 | 834.92 ± 2 | 826.27 ± 2.1 | 817.66 ± 2.2 | – | – | – | – | – | – | 809.07 ± 2.2 | –
6 | Cc1ccc(C)cc1 [1,4-dimethylbenzene] + CC1COC(=O)O1 | – | – | – | – | – | – | 861 ± 40 | 852.28 ± 40 | 843.58 ± 40 | 834.92 ± 40 | 826.27 ± 40 | 817.66 ± 40 | – | 809.07 ± 40
7 | CC1COC(=O)O1 (configuration not stated) [4-methyl-1,3-dioxolan-2-one] | 1200.25 ± 40 | 1180.55 ± 40 kg/m3 and 1180.56 ± 40 kg/m3 | 1161.28 ± 40 | 1142.43 ± 40 | 1123.99 ± 40 | 1105.98 ± 40 | – | – | – | – | – | – | 1088.38 ± 40 | –
